Experimental findings from US7138543B2, “Thiolalkyl benzoic acid derivatives” (Guilford Pharmaceuticals Inc., priority 2001, dated 2006) are described below.

In assay [1] the test system is TGF-β2. Description: Effect on TGF-β2 in in vitro ischemia model. In kind it is cell-based. The following applies: ischemic cell cultures, FIG. 2. Here is the method:
(§1) Effect of NAALADase Inhibition on TGF-β in In vitro Ischemia Model Compound C was added to ischemia cell cultures to determine its effect on TGF-β levels during stroke.

The test system of assay [2] is rats subjected to middle cerebral artery occlusion. Description: Neuroprotective effect with TGF-β neutralizing antibodies in MCAO rats. The note with it: FIG. 5. It is filed as in vivo. The text has this:
The effect of TGF-β neutralizing antibodies on the neuroprotective effect of Compound C was also studied in rats following MCAO.
One of ordinary skill in the art can appreciate that the regulation of TGF-β's by NAALADase inhibitors may have implications not only in stroke, but also in other diseases, disorders and conditions including, without limitation, neurological diseases, psychiatric diseases, demyelinating diseases, prostate cancer, inflammation, diabetes and angiogenesis.

Assay [3] deals with chronic constrictive injury-induced rats. Kind of assay: Neuropathic pain in CCI model (sciatic nerve ligation). It is filed as in vivo. How it is done: In vivo Assay of NAALADase Inhibitors on Neuropathic Pain in CCI Model
Sciatic nerve ligation, consisting of 4 ligatures tied loosely around the sciatic nerve at 1 mm intervals proximal to the nerve trifurcation, was performed on rats. […] The rats were habituated to a Hargreaves apparatus. An infrared heat source was directed onto the dorsal surface of each rat's hindpaws and the time taken for the rat to withdraw its paws was noted. The difference in scores between the latency of the response for the paw on the operated side versus the paw on the unoperated control side was determined.

The subject of assay [4] is TGF-β1. Kind of assay: TGF-β1 levels by microdialysis in MCAO rats. In kind it is in vivo. The following applies: during occlusion and reperfusion, FIG. 6.
In assay [5] the test system is ischemic cell cultures. Kind of assay: Neuroprotective effect with growth factor neutralizing antibodies in in vitro ischemia model. In kind it is cell-based. Here is the method: TGF-β neutralizing antibodies were then added to the ischemic cell cultures.
Assay [6] relates to TGF-β1. Kind of assay: Effect on TGF-β1 in in vitro ischemia model. In kind it is cell-based. The following applies: ischemic cell cultures, FIG. 1. How it is done: as §1

As to `O=C(O)CCC(CP(=O)(O)O)C(=O)O` (centres unmarked) [Compound C, 2-(phosphonomethyl)pentanedioic acid], in assay [1], the TGF-β2 concentration entry is “increased concentration”. The “neuroprotective effect in presence of TGF-β neutralizing antibodies” value in assay [2] is given as “significantly attenuated the neuroprotective effect”; in assay [5] (FIG. 3), “blocked the neuroprotective effect”. For the same molecule, the “withdrawal latency difference scores between operated and unoperated paws” value in assay [3] (50 mg/kg i.p. daily starting 10 days post surgery, FIG. 8) is given as “dramatically normalized the difference scores”. In addition, in assay [3] (50 mg/kg i.p. daily, persisted to end of study (21 days of daily dosing)), the “start of significant effect on difference scores” value is given as 11 days of drug treatment. Besides, the TGF-β1 levels result in assay [4] is reported as “significant rise in TGF-β1 levels”. The “neuroprotective effect in presence of FGF antibody” value in assay [5] (FIG. 4) is on record as “did not block the neuroprotective effect”. The TGF-β1 concentration result in assay [6] is given as “increased concentration”.
